The results in this text go back to patent US8871767B2, “2-arylimidazo[1,2-B]pyridazine, 2-phenylimidazo[1,2-A]pyridine, and 2-phenylimidazo[1,2-A]pyrazine derivatives” (Hengrui (USA) Ltd., priority 2010, dated 2014).

pIC50: −log10 of the molar value. Read-outs that look alike come from different tables or passages of the source. Where only a bound is given, the exact number is not on record here.

The test system of assay [1] is Hedgehog pathway activation on 10T1/2/Smo#3 cells (C3H10T1/2 cells transfected with human Smoothened receptor). In words: Hedgehog pathway activation on 10T1/2/Smo#3 cells measured by ALP activity. Format: cell-based. Conditions: Mus musculus, C3H 10T1/2, 10T1/2/Smo#3 cells. The gist of the method: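 Inhibition of alkaline phosphatase induction, read fluorometrically from 4-methylumbelliferyl phosphate conversion, gave IC50 values; CellTiter-Blue tracked viability in parallel. Cells were the human Smo-transfected 10T1/2/Smo#3 pool, stimulated by 10-20% hShh conditioned medium or the Smo agonist SAG (500 nM).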

Assay [2] concerns Hedgehog pathway activation (GLi-luciferase reporter) in Shh Light II reporter cells. Kind of assay: Hedgehog pathway activation on Shh Light II reporter cells measured by luciferase activity. The assay is classed as cell-based. Particulars: Mus musculus, Shh Light II. The gist of the method:
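Shh Light II reporter cells carrying a hedgehog-responsive GLi-luciferase reporter were stimulated either with 500 nM SAG, a direct Smoothened agonist, or with conditioned media containing human Sonic Hedgehog (hShh). Test compounds were evaluated for blocking this pathway activation, quantified by luciferase activity. Cell viability was monitored in parallel with the Celltiter-Blue® assay.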

The mark [3] stands for this setting: hShh activation, ALP activity, read-out: 10T1/2/Smo#3 ALP activity (hShh Activation).
The mark [4] stands for this setting: measured by ALP activity, read-out: ALP (IC50, inhibition of Hedgehog pathway activation).
The mark [5] stands for this setting: SAG activation (500 nM SAG), read-out: Shh Light II luciferase activity (SAG activation).
The mark [6] stands for this setting: hShh activation, read-out: Shh (IC50, inhibition of Hedgehog pathway activation).
Where [7] appears, read: hShh activation, read-out: Shh Light II luciferase activity (hShh activation).

Regarding `Cc1ccc(-c2cn3nc(-c4ccc(C=CC(=O)NO)cc4)ccc3n2)cc1NC(=O)C(C)(C)C` [compound 560], the pIC50 in assay [1] (setting [3]) was 5.52 to 6.52; in assay [1] (setting [4]), 6.32; in assay [2] (setting [5]), 4.52 to 5.52; in assay [2] (setting [6]), 6.40; in assay [2] (setting [7]) it was more than 6.52.
In the case of `Cc1ccc(-c2cn3nc(-c4ccc(Cl)cn4)ccc3n2)cc1NC(=O)C(C)(C)C` [Example 366, N-(5-(6-(5-chloropyridin-2-yl)imidazo[1,2-b]pyridazin-2-yl)-2-methylphenyl)pivalamide], the pIC50 in assay [1] (setting [4]) was 5.96; in assay [2] (setting [6]), 6.64.
On to `CCOC(=O)CCCCCOc1ccc(-c2ccc3nc(-c4ccc(C)c(NC(=O)C(C)(C)C)c4)cn3n2)c(C(F)(F)F)c1` [Example 412, ethyl 6-(4-(2-(4-methyl-3-pivalamidophenyl)imidazo[1,2-b]pyridazin-6-yl)-3-(trifluoromethyl)phenoxy)hexanoate], for which the pIC50 in assay [1] (setting [3]) was 5.52 to 6.52; in assay [1] (setting [4]), 6.18; in assay [2] (setting [5]), 5.52 to 6.52; in assay [2] (setting [6]), 6.65; in assay [2] (setting [7]), more than 6.52.
As for `Cc1ccc(-c2cn3nc(-c4cccc(OCCCCCC(=O)NO)c4C(F)(F)F)ccc3n2)cc1NC(=O)C(C)(C)C` [Example 438, N-hydroxy-6-(3-(2-(4-methyl-3-pivalamidophenyl)imidazo[1,2-b]pyridazin-6-yl)-2-(trifluoromethyl)phenoxy)hexanamide], the pIC50 is 5.59 in assay [1] (setting [4]) and 5.93 in assay [2] (setting [6]).
As to `COc1ccc2nc(-c3ccc(C)c(NC(=O)c4ccccc4F)c3)cn2n1` [Example 96, 2-fluoro-N-(5-(6-methoxyimidazo[1,2-b]pyridazin-2-yl)-2-methylphenyl)benzamide], the pIC50 in assay [1] (setting [3]) is 5.52 to 6.52; in assay [1] (setting [4]), 5.96; in assay [2] (setting [5]), 5.52 to 6.52; in assay [2] (setting [6]), 6.40; in assay [2] (setting [7]), 5.52 to 6.52.
Consider `CC(C)(C)C(=O)Nc1cc(-c2cn3nc(OC4CCC4)ccc3n2)ccc1C(F)(F)F` [Example 182, N-(5-(6-cyclobutoxyimidazo[1,2-b]pyridazin-2-yl)-2-(trifluoromethyl)phenyl)pivalamide], for which the pIC50 was 5.73 in assay [1] (setting [4]) and 5.76 in assay [2] (setting [6]).
For the compound `CCOC(=O)CCCCOc1ccc(C(F)(F)F)c(-c2ccc3nc(-c4ccc(C)c(NC(=O)C(C)(C)C)c4)cn3n2)c1` [Example 433, ethyl 5-(3-(2-(4-methyl-3-pivalamidophenyl)imidazo[1,2-b]pyridazin-6-yl)-4-(trifluoromethyl)phenoxy)pentanoate], the pIC50 in assay [1] (setting [4]) was 6.13; in assay [2] (setting [6]), 6.71.
As for `CCc1ccc(-c2cn3nc(-c4cccnc4C(F)(F)F)ccc3n2)cc1NC(=O)C1(C)COC1` [Example 696, N-(2-ethyl-5-(6-(2-(trifluoromethyl)pyridin-3-yl)imidazo[1,2-b]pyridazin-2-yl)phenyl)-3-methyloxetane-3-carboxamide], the values for the pIC50 in assay [1] (setting [4]) and in assay [2] (setting [6]) were 6.64 and 6.60, respectively.
Taken in the same sequence, the figures for `CCOC(=O)Nc1cc(-c2cn3nc(-c4cccnc4C(F)(F)F)ccc3n2)c(F)cc1Cl` [Example 657, ethyl 2-chloro-4-fluoro-5-(6-(2-(trifluoromethyl)pyridin-3-yl)imidazo[1,2-b]pyridazin-2-yl)phenylcarbamate] were 6.60 and 7.02.
Regarding `CCC(CO)Nc1ccc2nc(-c3ccc(C(F)(F)F)c(NC(=O)C(C)(C)C)c3)cn2n1` (stereo not shown) [Example 303, N-(5-(6-(1-hydroxybutan-2-ylamino)imidazo[1,2-b]pyridazin-2-yl)-2-(trifluoromethyl)phenyl)pivalamide], the pIC50 is 5.52 to 6.52 in assay [1] (setting [3]); 6.11 in assay [1] (setting [4]); 5.52 to 6.52 in assay [2] (setting [5]); 6.00 in assay [2] (setting [6]); 5.52 to 6.52 in assay [2] (setting [7]).
For `Cc1ccc(-c2cn3nc(C4=CCC(C)(C)CC4)ccc3n2)cc1NC(=O)C(C)(C)C` [Example 444, N-(5-(6-(4,4-dimethylcyclohex-1-enyl)imidazo[1,2-b]pyridazin-2-yl)-2-methylphenyl)pivalamide], the pIC50 in assay [1] (setting [4]) is 6.22; in assay [2] (setting [6]), 5.91.
Taken in the same sequence, the figures for `COc1ccc2nc(-c3cc(NC(=O)C(C)(C)C)ccc3Cl)cn2n1` [Example 115, N-(4-chloro-3-(6-methoxyimidazo[1,2-b]pyridazin-2-yl)phenyl)pivalamide] were 5.55 and 5.54.
In the same order, the values of `CC(C)(C)C(=O)Nc1cc(-c2cn3nc(-c4ccccc4Cl)ccc3n2)ccc1C(F)(F)F` [Example 208, N-(5-(6-(2-chlorophenyl)imidazo[1,2-b]pyridazin-2-yl)-2-(trifluoromethyl)phenyl)pivalamide] are 6.85 and 7.02.
For `CCc1ccc(-c2cn3nc(-c4cccnc4C(F)(F)F)ccc3n2)cc1NC(=O)C(C)(C)C(F)(F)F` [Example 690, N-(2-ethyl-5-(6-(2-(trifluoromethyl)pyridin-3-yl)imidazo[1,2-b]pyridazin-2-yl)phenyl)-3,3,3-trifluoro-2,2-dimethylpropanamide], the pIC50 in assay [1] (setting [4]) was 6.65; in assay [2] (setting [6]), 7.23.
Taken in the same sequence, the figures for `CN[C@H]1CCN(c2ccc3nc(-c4ccc(C)c(NC(=O)C(C)(C)C)c4)cn3n2)C1` [Example 392, (S)-N-(2-methyl-5-(6-(3-(methylamino)pyrrolidin-1-yl)imidazo[1,2-b]pyridazin-2-yl)phenyl)pivalamide] were 7.03 and 7.11.
`CC(CC(=O)Nc1cc(-c2cn3nc(-c4cccnc4C(F)(F)F)ccc3n2)c(F)cc1Cl)C(F)(F)F` (stereo not shown) [Example 661, N-(2-chloro-4-fluoro-5-(6-(2-(trifluoromethyl)pyridin-3-yl)imidazo[1,2-b]pyridazin-2-yl)phenyl)-4,4,4-trifluoro-3-methylbutanamide]: the pIC50 is 7.82 in assay [1] (setting [4]) and 7.51 in assay [2] (setting [6]).
Taken in the same sequence, the figures for `COc1ccc2nc(-c3ccc(C)c(NC(=O)c4cccc(C(F)(F)F)c4)c3)cn2n1` [Example 100, N-(5-(6-methoxyimidazo[1,2-b]pyridazin-2-yl)-2-methylphenyl)-3-(trifluoromethyl)benzamide] were 5.98 and 5.96.
Taken in the same sequence, the figures for `CN(C)C1CCN(c2ccc3nc(-c4ccc(C(F)(F)F)c(NC(=O)C(C)(C)C)c4)cn3n2)C1` (stereo not shown) [Example 350, N-(5-(6-(3-(dimethylamino)pyrrolidin-1-yl)imidazo[1,2-b]pyridazin-2-yl)-2-(trifluoromethyl)phenyl)pivalamide] were 7.55 and 7.19.
In the same order, the values of `Cc1ccc(-c2cn3nc(-c4ccc(C(N)=O)cc4F)ccc3n2)cc1NC(=O)C(C)(C)C` [compound 541] are 6.74 and 6.59.
As for `Cc1ccc(-c2cn3nc(-c4ccc(C(=O)NO)cc4C(F)(F)F)ccc3n2)cc1NC(=O)C(C)(C)C` [Example 437, N-hydroxy-4-(2-(4-methyl-3-pivalamidophenyl)imidazo[1,2-b]pyridazin-6-yl)-3-(trifluoromethyl)benzamide], the pIC50 in assay [1] (setting [3]) was more than 6.52; in assay [1] (setting [4]) it was 6.82; in assay [2] (setting [5]) it was more than 6.52; in assay [2] (setting [6]) it was 7.15; in assay [2] (setting [7]), more than 6.52.
